This experiment relates to test microbes. The experiment in a line: Zone of Inhibition Test, antimicrobial efficacy overall. The experiment is classed as cell-based. The settings on record: benzalkonium chloride in imbuement. The text has this:
Each fabric was placed in a commercially prepared imbuement containing benzalkonium chloride as the functional cationic additive (an antimicrobial agent).
All test results are the average of testing three batches of sample moist wipes. […] Therefore, all of these examples killed the test microbes when benzalkonium chloride was at the measured concentration in solution in the lotion (Table V). The difference (Example 10 versus Example 11) is when comparing the area around the circular piece of test wet wipe. As the benzalkonium chloride (from the imbuement) diffuses away from the test disk, the concentration of benzalkonium chloride decreases with increasing distance from the test disk. Each test microbe has a different minimum inhibitory concentration (MIC) for benzalkonium chloride to effectively kill that microbe. Therefore, if the concentration of benzalkonium chloride is above the MIC, it is observed as a visible zone where the growth of that test microbe has been inhibited. For this reason, some test microbes show no additional zone around the disk (code 0 in Table V), some show a partial zone around the disk (code 1), some show a small inhibition zone (code 2), while other test microbes show a larger inhibition zone (code 3). Therefore, comparisons among example wet wipes can only be made while comparing the same test microbe.

benzalkonium chloride: the “concentration remaining in solution shown to be sufficient for antibacterial efficacy” value is recorded as 0.029%.
